Paper PMC12442245, “Activity Analysis of the P2X Receptor Antagonist PPADS against Signal Transducer and Activator of Transcription Proteins” (Chembiochem, 2025)
Non-standard residues stand in square brackets, D forms with d. Residues, ends and D or L forms follow the SMILES beside them. pY = N[C@@H](Cc1ccc(OP(=O)(O)O)cc1)C(=O)O

Columns and labels:
Format in all cases: binding
STAT5b = target: T1, STAT5b (Homo sapiens, UniProt P51692); assay: HTRF assay, STAT5b; settings: STAT5b 80 nM, without reducing agent, 1 h
T1 sequence (P51692 1-787): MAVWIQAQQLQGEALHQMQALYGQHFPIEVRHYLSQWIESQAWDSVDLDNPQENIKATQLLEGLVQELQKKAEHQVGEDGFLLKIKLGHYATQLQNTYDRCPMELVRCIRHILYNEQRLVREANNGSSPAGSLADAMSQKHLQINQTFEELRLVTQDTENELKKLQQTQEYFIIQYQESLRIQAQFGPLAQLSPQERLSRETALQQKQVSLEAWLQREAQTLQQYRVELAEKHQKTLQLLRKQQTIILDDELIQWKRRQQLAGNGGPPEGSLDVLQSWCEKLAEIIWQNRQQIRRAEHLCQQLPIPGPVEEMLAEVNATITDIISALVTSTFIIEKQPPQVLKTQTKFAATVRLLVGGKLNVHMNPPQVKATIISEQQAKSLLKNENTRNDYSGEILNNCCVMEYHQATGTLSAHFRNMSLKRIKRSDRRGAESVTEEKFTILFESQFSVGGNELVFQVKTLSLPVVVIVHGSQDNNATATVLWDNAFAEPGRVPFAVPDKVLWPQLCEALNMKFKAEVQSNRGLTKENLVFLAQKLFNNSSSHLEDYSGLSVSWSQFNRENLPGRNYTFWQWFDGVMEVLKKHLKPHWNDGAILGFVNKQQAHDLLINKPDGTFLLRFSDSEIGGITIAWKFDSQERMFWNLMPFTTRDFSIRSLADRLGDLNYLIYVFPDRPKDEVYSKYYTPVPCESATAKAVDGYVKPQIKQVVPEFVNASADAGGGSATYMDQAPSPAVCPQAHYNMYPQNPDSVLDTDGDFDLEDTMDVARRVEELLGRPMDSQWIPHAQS
From the text: (§1) The azo dyes PPADS and iso‐PPADS have a deep red color in aqueous solution. […] In order to exclude this possibility, we established homogeneous time‐resolved fluorescence resonance energy transfer (HTRF) assays to confirm the degree of binding between STAT4, STAT5a, and STAT5b and the respective 5‐carboxyfluorescein‐labeled binding peptides used in the FP assay. In addition, an HTRF assay was established for STAT3, one of the STAT proteins targeted to a lesser extent in FP assays, as a specificity control (Figure 1B,C). The STAT protein constructs each contain a 6x‐His‐tag.^[ [15], [16], [17], [22] ^] A Tb^3+‐cryptate fused to an anti‐6x‐His antibody was chosen as the long‐lived fluorescent donor, while the carboxyfluorescein linked to the respective STAT‐binding peptides served as the acceptor (Figure 2A). Emission was measured with a time delay of 60 μs after excitation, allowing any initial compound fluorescence to decay beforehand. […]
(§2) Screening of chemical libraries comprising approximately 5000 known bioactive compounds in fluorescence polarization-based assays against phosphorylation-dependent protein-protein interaction domains, including STAT proteins, has been described.[1] […]
(§3) Fluorescence polarization assays
(§4) Competitive fluorescence polarization (FP) assays for STAT1,[2] […] Briefly, peptide binding to proteins was analyzed using the following carboxyfluorescein (CF) -labelled pepti des at a concentration of 10 nM: STAT1: 5-CF-GpYDKPHVL-OH, STAT3: 5-CF-GpYLPQTV -NH2, STAT4: 5-CF-GpYLPQNID-OH, STAT5a and STAT5b: 5-CF-GpYLVLDKW-OH, STAT6: 5- […]
(§5) CFGp[…]-OH. […] FP was measured using an Infinite F500 plate reader (Tecan) and measurements were converted into percent inhibition according to the binding curve equation. Curves were plotted and best fits calculated using OriginPro […]
(§6) Homogenous time-resolved fluorescence (HTRF) assays for STAT3, STAT4, STAT5a and STAT5b were carried out using Cisbio Monoclonal Antibody Anti-6His-Tb Gold as the fluorescence donor (Perkin Elmer) and the corresponding CF-labelled binding peptide as the acceptor. […] The average reading from 3 wells was obtained. […]

STAT5a = target: T2, STAT5a (Homo sapiens, UniProt P42229); assay: HTRF assay, STAT5a; settings: STAT5a 110 nM, without reducing agent, 1 h
T2 sequence (P42229 1-794): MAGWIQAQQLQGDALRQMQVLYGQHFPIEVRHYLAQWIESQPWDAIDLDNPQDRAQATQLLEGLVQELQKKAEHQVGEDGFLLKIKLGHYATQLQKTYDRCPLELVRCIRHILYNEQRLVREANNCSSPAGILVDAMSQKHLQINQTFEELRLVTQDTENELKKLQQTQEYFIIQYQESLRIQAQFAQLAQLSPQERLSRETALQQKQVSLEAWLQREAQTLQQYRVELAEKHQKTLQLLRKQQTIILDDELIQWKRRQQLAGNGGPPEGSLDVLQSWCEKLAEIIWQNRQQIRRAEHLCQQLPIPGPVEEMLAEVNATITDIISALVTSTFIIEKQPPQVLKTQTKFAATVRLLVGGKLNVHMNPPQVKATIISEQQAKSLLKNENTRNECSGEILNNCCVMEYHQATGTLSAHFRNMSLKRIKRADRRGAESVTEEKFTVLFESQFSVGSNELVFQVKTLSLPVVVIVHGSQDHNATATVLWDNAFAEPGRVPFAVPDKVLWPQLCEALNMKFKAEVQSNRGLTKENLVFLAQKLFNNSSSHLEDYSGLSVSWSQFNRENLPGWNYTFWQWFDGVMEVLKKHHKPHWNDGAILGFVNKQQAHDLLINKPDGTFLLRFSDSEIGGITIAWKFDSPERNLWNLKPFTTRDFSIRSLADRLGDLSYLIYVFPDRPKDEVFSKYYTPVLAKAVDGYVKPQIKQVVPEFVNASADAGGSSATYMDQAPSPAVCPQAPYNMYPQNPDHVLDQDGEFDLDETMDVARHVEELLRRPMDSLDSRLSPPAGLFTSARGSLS
From the text: as §1, §2, §3, §4, §5, §6

STAT4 = target: T3, STAT4 (Homo sapiens, UniProt Q14765); assay: HTRF assay, STAT4; settings: STAT4 30 nM, without reducing agent, 1 h
T3 sequence (Q14765 1-748): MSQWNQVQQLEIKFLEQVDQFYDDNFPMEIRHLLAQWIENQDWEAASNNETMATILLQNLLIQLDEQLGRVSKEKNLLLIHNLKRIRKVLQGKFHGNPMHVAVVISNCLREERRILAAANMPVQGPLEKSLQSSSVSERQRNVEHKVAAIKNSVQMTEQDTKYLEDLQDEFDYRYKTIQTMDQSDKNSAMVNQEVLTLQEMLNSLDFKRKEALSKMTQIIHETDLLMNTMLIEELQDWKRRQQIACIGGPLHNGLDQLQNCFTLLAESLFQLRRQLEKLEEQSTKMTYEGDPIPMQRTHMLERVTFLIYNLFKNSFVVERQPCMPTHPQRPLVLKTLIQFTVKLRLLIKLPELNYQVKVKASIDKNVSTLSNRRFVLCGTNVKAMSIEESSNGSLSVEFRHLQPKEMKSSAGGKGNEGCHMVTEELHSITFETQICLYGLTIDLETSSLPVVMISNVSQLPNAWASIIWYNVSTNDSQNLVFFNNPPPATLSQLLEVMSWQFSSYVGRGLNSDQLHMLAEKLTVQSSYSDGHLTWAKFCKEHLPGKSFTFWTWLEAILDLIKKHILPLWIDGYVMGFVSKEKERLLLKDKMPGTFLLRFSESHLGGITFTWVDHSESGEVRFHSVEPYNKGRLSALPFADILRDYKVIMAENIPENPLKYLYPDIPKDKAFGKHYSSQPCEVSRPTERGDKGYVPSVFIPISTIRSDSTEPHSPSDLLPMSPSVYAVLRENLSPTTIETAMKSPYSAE
From the text: as §1, §2, §3, §4, §5, §6

Structure (SMILES)	IC50 (STAT5b) [nM]	IC50 (STAT5a) [nM]	IC50 (STAT4) [nM]
CC(C)C[C@H](NC(=O)[C@H](Cc1c[nH]c2ccccc12)NC(=O)[C@H](CCCCN)NC(=O)[C@H](CC(=O)O)NC(=O)[C@H](CC(C)C)NC(=O)[C@@H](NC(=O)[C@H](CC(C)C)NC(=O)[C@H](Cc1ccc(OP(=O)(O)O)cc1)NC(=O)[C@@H](NC(=O)[C@@H](N)CC(=O)O)[C@@H](C)O)C(C)C)C(=O)O (H-DT[pY]LVLDKWL-OH)	4180 ± 250	2480 ± 270	
CC[C@H](C)[C@H](NC(=O)[C@H](CC(N)=O)NC(=O)[C@H](CCC(N)=O)NC(=O)[C@@H]1CCCN1C(=O)[C@H](CC(C)C)NC(=O)[C@H](Cc1ccc(OP(=O)(O)O)cc1)NC(=O)CNC(C)=O)C(=O)N[C@@H](CC(=O)O)C(=O)O [Ac‐GpYLPQNID] (Ac-G[pY]LPQNID-OH)			2010 ± 80
